From PubChem BioAssay AID1259407 (Chemical Carcinogenesis Research Information System (CCRIS), 2018)
Activity calls are given as the source filed them. No rule for the calls is given here.

Test system: CCRIS mutagenicity, Ames/micronucleus/aberration tests
Assay: CCRIS mutagenicity studies
[1] = Test System: AMES SALMONELLA TYPHIMURIUM, Strain/Indicator: TA97, Metabolic Activation: NONE, Method: PREINCUBATION
[2] = Test System: AMES SALMONELLA TYPHIMURIUM, Strain/Indicator: TA98, Metabolic Activation: NONE, Method: PREINCUBATION
[3] = Test System: AMES SALMONELLA TYPHIMURIUM, Strain/Indicator: TA100, Metabolic Activation: NONE, Method: PREINCUBATION
[4] = Test System: AMES SALMONELLA TYPHIMURIUM, Strain/Indicator: TA100, Metabolic Activation: RAT, LIVER, S-9, PHENOBARBITAL AND 5,6-BENZOFLAVONE, Method: PREINCUBATION
[5] = Test System: AMES SALMONELLA TYPHIMURIUM, Strain/Indicator: TA102, Metabolic Activation: NONE, Method: PREINCUBATION
[6] = Test System: AMES SALMONELLA TYPHIMURIUM, Strain/Indicator: TA100, Metabolic Activation: NONE, Method: STANDARD PLATE

## O=C1C=C(Nc2ccccc2)C(=O)c2ccccc21
[1]
  mutagenic call: inactive; negative
Test System: AMES SALMONELLA TYPHIMURIUM, Strain/Indicator: TA97, Metabolic Activation: RAT, LIVER, S-9, PHENOBARBITAL AND 5,6-BENZOFLAVONE, Method: PREINCUBATION
  mutagenic call: active; positive
[2]
  mutagenic call: inactive; negative
Test System: AMES SALMONELLA TYPHIMURIUM, Strain/Indicator: TA98, Metabolic Activation: RAT, LIVER, S-9, PHENOBARBITAL AND 5,6-BENZOFLAVONE, Method: PREINCUBATION
  mutagenic call: active; positive
[3]
  mutagenic call: inactive; negative
[4]
  mutagenic call: inactive; negative
[5]
  mutagenic call: inactive; negative
Test System: AMES SALMONELLA TYPHIMURIUM, Strain/Indicator: TA102, Metabolic Activation: RAT, LIVER, S-9, PHENOBARBITAL AND 5,6-BENZOFLAVONE, Method: PREINCUBATION
  mutagenic call: inactive; negative
Test System: AMES SALMONELLA TYPHIMURIUM, Strain/Indicator: TA104, Metabolic Activation: NONE, Method: PREINCUBATION
  mutagenic call: inactive; negative
Test System: AMES SALMONELLA TYPHIMURIUM, Strain/Indicator: TA104, Metabolic Activation: RAT, LIVER, S-9, PHENOBARBITAL AND 5,6-BENZOFLAVONE, Method: PREINCUBATION
  mutagenic call: active; positive
Test System: AMES SALMONELLA TYPHIMURIUM, Strain/Indicator: TA1535, Metabolic Activation: NONE, Method: PREINCUBATION
  mutagenic call: inactive; negative
Test System: AMES SALMONELLA TYPHIMURIUM, Strain/Indicator: TA1535, Metabolic Activation: RAT, LIVER, S-9, PHENOBARBITAL AND 5,6-BENZOFLAVONE, Method: PREINCUBATION
  mutagenic call: inactive; negative
Test System: AMES SALMONELLA TYPHIMURIUM, Strain/Indicator: TA1537, Metabolic Activation: NONE, Method: PREINCUBATION
  mutagenic call: inactive; negative
Test System: AMES SALMONELLA TYPHIMURIUM, Strain/Indicator: TA1537, Metabolic Activation: RAT, LIVER, S-9, PHENOBARBITAL AND 5,6-BENZOFLAVONE, Method: PREINCUBATION
  mutagenic call: active; positive
Test System: AMES SALMONELLA TYPHIMURIUM, Strain/Indicator: TA1538, Metabolic Activation: NONE, Method: PREINCUBATION
  mutagenic call: inactive; negative
Test System: AMES SALMONELLA TYPHIMURIUM, Strain/Indicator: TA1538, Metabolic Activation: RAT, LIVER, S-9, PHENOBARBITAL AND 5,6-BENZOFLAVONE, Method: PREINCUBATION
  mutagenic call: active; positive
Test System: AMES SALMONELLA TYPHIMURIUM, Strain/Indicator: TA2637, Metabolic Activation: NONE, Method: PREINCUBATION
  mutagenic call: active; positive
Test System: AMES SALMONELLA TYPHIMURIUM, Strain/Indicator: TA2637, Metabolic Activation: RAT, LIVER, S-9, PHENOBARBITAL AND 5,6-BENZOFLAVONE, Method: PREINCUBATION
  mutagenic call: active; positive

## COc1ccc2cc(CCC(C)=O)ccc2c1
Test System: AMES SALMONELLA TYPHIMURIUM, Strain/Indicator: TA97, Metabolic Activation: NONE, Method: STANDARD PLATE
  mutagenic call: inactive; negative
Test System: AMES SALMONELLA TYPHIMURIUM, Strain/Indicator: TA97, Metabolic Activation: S-9, Method: STANDARD PLATE
  mutagenic call: inactive; negative
Test System: AMES SALMONELLA TYPHIMURIUM, Strain/Indicator: TA98, Metabolic Activation: NONE, Method: STANDARD PLATE
  mutagenic call: inactive; negative
Test System: AMES SALMONELLA TYPHIMURIUM, Strain/Indicator: TA98, Metabolic Activation: S-9, Method: STANDARD PLATE
  mutagenic call: inactive; negative
[6]
  mutagenic call: inactive; negative
Test System: AMES SALMONELLA TYPHIMURIUM, Strain/Indicator: TA100, Metabolic Activation: S-9, Method: STANDARD PLATE
  mutagenic call: inactive; negative
Test System: AMES SALMONELLA TYPHIMURIUM, Strain/Indicator: TA102, Metabolic Activation: NONE, Method: STANDARD PLATE
  mutagenic call: inactive; negative
Test System: AMES SALMONELLA TYPHIMURIUM, Strain/Indicator: TA102, Metabolic Activation: S-9, Method: STANDARD PLATE
  mutagenic call: inactive; negative

## Cc1cnc2ccccc2c1
[2]
  mutagenic call: inactive; negative
Test System: AMES SALMONELLA TYPHIMURIUM, Strain/Indicator: TA98, Metabolic Activation: RAT, LIVER, S-9, Method: PREINCUBATION
  mutagenic call: inactive; negative
[3]
  mutagenic call: inactive; negative
[4]
  mutagenic call: active; positive
Test System: AMES SALMONELLA TYPHIMURIUM, Strain/Indicator: TA100, Metabolic Activation: RAT, LIVER, S-9, PHENOBARBITAL AND 5,6-NAPHTHOFLAVONE, Method: PREINCUBATION
  mutagenic call: active; positive

## C/C(Cl)=C/C=O
Test System: AMES SALMONELLA TYPHIMURIUM, Strain/Indicator: D3052, Metabolic Activation: NONE, Method: PREINCUBATION, LIQUID INCUBATION
  mutagenic call: active; positive
Test System: AMES SALMONELLA TYPHIMURIUM, Strain/Indicator: TA98, Metabolic Activation: NONE, Method: PREINCUBATION, LIQUID INCUBATION
  mutagenic call: inactive; negative
Test System: AMES SALMONELLA TYPHIMURIUM, Strain/Indicator: TA100, Metabolic Activation: NONE, Method: PREINCUBATION, LIQUID INCUBATION
  mutagenic call: inactive; negative
Test System: AMES SALMONELLA TYPHIMURIUM, Strain/Indicator: TA1535, Metabolic Activation: NONE, Method: PREINCUBATION, LIQUID INCUBATION
  mutagenic call: inactive; negative
Test System: AMES SALMONELLA TYPHIMURIUM, Strain/Indicator: TA1538, Metabolic Activation: NONE, Method: PREINCUBATION, LIQUID INCUBATION
  mutagenic call: inactive; negative

## O=C(O)c1ccc(/C=N/n2nnc3c([nH]c4ccccc43)c2=O)cc1
[1]
  mutagenic call: active; positive
Test System: AMES SALMONELLA TYPHIMURIUM, Strain/Indicator: TA97, Metabolic Activation: RAT, LIVER, S-9, AROCLOR 1254 (10%), Method: PREINCUBATION
  mutagenic call: active; positive
[2]
  mutagenic call: active; positive
Test System: AMES SALMONELLA TYPHIMURIUM, Strain/Indicator: TA98, Metabolic Activation: RAT, LIVER, S-9, AROCLOR 1254 (10%), Method: PREINCUBATION
  mutagenic call: active; positive
[3]
  mutagenic call: active; positive
Test System: AMES SALMONELLA TYPHIMURIUM, Strain/Indicator: TA100, Metabolic Activation: RAT, LIVER, S-9, AROCLOR 1254 (10%), Method: PREINCUBATION
  mutagenic call: active; positive
[5]
  mutagenic call: inactive; negative
Test System: AMES SALMONELLA TYPHIMURIUM, Strain/Indicator: TA102, Metabolic Activation: RAT, LIVER, S-9, AROCLOR 1254 (10%), Method: PREINCUBATION
  mutagenic call: active; positive

## O=CC(O)C(O)C(O)C(O)CO (centres undefined)
[1]
  mutagenic call: inactive; negative
Test System: AMES SALMONELLA TYPHIMURIUM, Strain/Indicator: TA97, Metabolic Activation: S-9, Method: PREINCUBATION
  mutagenic call: inactive; negative
[5]
  mutagenic call: inactive; negative
Test System: AMES SALMONELLA TYPHIMURIUM, Strain/Indicator: TA102, Metabolic Activation: S-9, Method: PREINCUBATION
  mutagenic call: inactive; negative

## CCC(C)NC(=O)C=Cc1ccc([N+](=O)[O-])o1 (centres undefined)
[2]
  mutagenic call: active; positive

## CCCOS(=O)(=O)c1ccc(C)cc1
End Point: IN VITRO MICRONUCLEUS, Test System: MOUSE LYMPHOMA L5178Y CELLS, Metabolic Activation: NONE
  mutagenic call: inactive; negative; positive results only at highly excessively cytotoxic doses
End Point: IN VITRO MICRONUCLEUS, Test System: MOUSE LYMPHOMA L5178Y CELLS, Metabolic Activation: RAT, LIVER, S-9
  mutagenic call: inactive; negative
End Point: In vitro micronucleus, Test System: Chinese Hamster Ovary (CHO-WBL) cells, Metabolic Activation: None
  mutagenic call: inactive; negative
[6]
  mutagenic call: active; positive
Test System: AMES SALMONELLA TYPHIMURIUM, Strain/Indicator: TA100, Metabolic Activation: RAT, LIVER, S-9, Method: STANDARD PLATE
  mutagenic call: active; positive
